# Columns and labels:
# [1] = system: Hela human cervical carcinoma; assay: In vitro inhibition rate to tumor cells (MTT), Hela; type: cell-based; conditions: 50 μg/ml
# Description: (§1) (1) Single cell suspension was seeded into 96-well plates (×3) (the cells was diluted in the PRMI-1640 minimum medium to 3×10^4 cells/ml, […] diluted cells/well). […] The experiments were performed in quadruplicate.
# (§2) (2) The medium was removed. Solutions of the anti-tumor agents (15 compounds) were prepared in a freshly prepared medium at the concentrations indicated in the following Table. […] of the solution was added into each well. Incubation was continued for 48 hours.
# (§3) (3) […] of 2 mg/ml MTT was added into each well, and incubated for 4 hours.
# (§4) (4) The medium was removed from the well. The microplates were swiftly turned down to throw-off the medium. […] DMSO was added into each well, and vortexed at room temperature for 10 minutes.
# (§5) (5) OD value (λ=570 nm) was measured with an Enzyme-Linked Detector.
# (§6) (6) The inhibition rates (IR) of cell growth were respectively calculated based on the following equation: IR(%)=[1−(average OD of the experimental group/average OD of the control group)]×100%
# [2] = system: Bel-7402 human hepatic carcinoma; assay: In vitro inhibition rate to tumor cells (MTT), Bel-7402; type: cell-based; conditions: 50 μg/ml
# Description: as §1, §2, §3, §4, §5, §6
# 293 cells = assay: Cell status of 293 cells treated with sample alone (herpes virus screening); conditions: 200 μg/ml, 24 hrs
# [3] = system: A-549 human lung adenocarcinoma; assay: In vitro inhibition rate to tumor cells (MTT), A-549; type: cell-based; conditions: 50 μg/ml
# Description: as §1, §2, §3, §4, §5, §6
# [4] = system: MCF-7 human mammary adenocarcinoma; assay: In vitro inhibition rate to tumor cells (MTT), MCF-7; type: cell-based; conditions: 50 μg/ml
# Description: as §1, §2, §3, §4, §5, §6
# [5] = system: SMMC-7721 human hepatic carcinoma; assay: In vitro inhibition rate to tumor cells (MTT), SMMC-7721; type: cell-based; conditions: 50 μg/ml
# Description: as §1, §2, §3, §4, §5, §6
# [6] = system: LLC mouse Lewis lung carcinoma; assay: In vitro inhibition rate to tumor cells (MTT), LLC; type: cell-based; conditions: 50 μg/ml
# Description: as §1, §2, §3, §4, §5, §6
# [7] = system: HL-60 human promyelocytic leukemia; assay: In vitro inhibition rate to tumor cells (MTT), HL-60; type: cell-based; conditions: 50 μg/ml
# Description: as §1, §2, §3, §4, §5, §6
# [8] = system: U-937 human histocytic lymphoma; assay: In vitro inhibition rate to tumor cells (MTT), U-937; type: cell-based; conditions: 50 μg/ml
# Description: as §1, §2, §3, §4, §5, §6
# [9] = system: mouse grafted liver cancer H22; assay: Activity against mouse grafted liver cancer H22; type: in vivo, Kunming mice; conditions: for Tumor weight: X ± SD, n = 10
# Description: (§7) The experiments were performed according to “Guideline for New Drugs (Western medicines) in Pre-clinical Stages” issued by Bureau of Drug Policy & Administration of the People's Republic of China, and the relevant methods in “Methodology of Pharmaceutical Experiments”, Xu Shuyun et al. ed. 120 male Kunming mice weighting […] were allowed to grow 3 days. No abnormality was observed. The mice were routinely inoculated in oxter with mouse sarcoma S-180, and weighted 4 hrs. after inoculation. The mice were randomly divided into 12 groups, 10 mice/group. Group 1 was given 0.3 ml of physiological saline as negative control; Group 2 was given 5-FU as positive control, 0.6 mg/mouse; Group 3 was given hydroxycamptothecine as positive control, 0.02 mg/mouse. Groups 4, 5 and 6 were injected with 10% Compound 6, 0.4 ml/mouse, 0.2 ml/mouse, and 0.1 ml/mouse, respectively. Groups 7, 8 and 9 were injected with 10% Compound 8, 0.4 ml/mouse, 0.2 ml/mouse, and 0.1 ml/mouse, respectively. Groups 10, 11, and 12 were injected with 10% Compound 20, 0.4 ml/mouse, 0.2 ml/mouse, and 0.1 ml/mouse, respectively. The tested compounds were administered on the next day after inoculation, once a day on alternate days, 6 doses totally administered. On the next day after the end dose, the mice were weighed and sacrificed. After the tumor was excised, body weight and tumor weight were recorded. The tumor inhibition rate was calculated based on the following formula: [(average tumor weight of the control groups−average tumor weight of the experimental groups)/average tumor weight of the control groups]×100%. The data was processed statistically. The above experiments were repeated three times.
# The experiments were identical with the experiments for activity against mouse grafted sarcoma S-180, except that the cell line inoculated was liver cancer H22. The experiments were repeated three times.
# mouse lung cancer Lewis = assay: Activity against mouse grafted lung cancer Lewis; type: in vivo, Kunming mice; conditions: Lewis, 1 mg/kg; for Tumor weight: X ± SD, n = 10
# Description: as §7
# (§8) The experiments were identical with the experiments for activity against mouse grafted sarcoma S-180, except the following:
# (1) the tumor cell line inoculated was mouse lung cancer Lewis;
# (2) Compound 6, Compound 8 and Compound 21 were not tested for their activity;
# (3) the mice were divided into six groups.
# [10] = system: mouse grafted uterine cervix cancer U14; assay: Activity against mouse grafted uterine cervix cancer U14; type: in vivo, Kunming mice; conditions: 1 mg/kg; for Tumor weight: X ± SD, n = 10
# Description: as §7, §8
# (1) the tumor cell line inoculated was mouse grafted uterine cervix cancer U14;
# (2) all the mice were female.
# [11] = system: mouse grafted sarcoma S-180; assay: Activity against mouse grafted sarcoma S-180; type: in vivo, Kunming mice; conditions: 1 mg/kg i.v., 6 doses; for Tumor weight: X ± SD, n = 10
# Description: (1) Experimental animals: Kunming mice weighting 18-22 g;
# (2) 100 mg/ml solutions of the 3 compounds were prepared, respectively, in water for injection (1% surface surfactant was added into the solution of Compound 6). 5-FU and camptothecine, 30 mg/kg and 1 mg/kg, respectively, were used as positive controls;
# 3. Route of Administration: Intravenous Injection.
# as §7
# [12] = H22, first experiment, 1 mg/kg i.v., 6 doses
# [13] = H22, second experiment, 1 mg/kg
compound,measurement,setting,value
"C=C1CC2(OC(=O)c3ccccc3)OC3(CC2C(C)C)C(C)CCC13 (centres unmarked) [Compound 4, Curcumol benzoate]","inhibition rate, Results (%) Hela",[1]; Table 1,73.22%
same,"inhibition rate, Results (%) Hela",[1]; Table 2 (repeated screening),70.12%
same,"inhibition rate, Results (%) Bel-7402",[2]; Table 1,43.21%
same,"inhibition rate, Results (%) Bel-7402",[2]; Table 2 (repeated screening),43.02%
same,"Cytopathy and cell status, Sample",293 cells,Good
same,"inhibition rate, Results (%) A-549",[3]; Table 1,10.51%
same,"inhibition rate, Results (%) A-549",[3]; Table 2 (repeated screening),14.03%
same,"inhibition rate, Results (%) MCF-7",[4]; Table 1,49.23%
same,"inhibition rate, Results (%) MCF-7",[4]; Table 2 (repeated screening),50.09%
same,"inhibition rate, Results (%) SMMC-7721",[5]; Table 1,5.30%
same,"inhibition rate, Results (%) SMMC-7721",[5]; Table 2 (repeated screening),1.96%
same,"inhibition rate, Results (%) LLC",[6]; Table 1,1.01%
same,"inhibition rate, Results (%) LLC",[6]; Table 2 (repeated screening),0.23%
same,"inhibition rate, Results (%) HL-60",[7]; Table 1,42.1%
same,"inhibition rate, Results (%) HL-60",[7]; Table 2 (repeated screening),40.01%
same,"inhibition rate, Results (%) U-937",[8]; Table 1,52.23%
same,"inhibition rate, Results (%) U-937",[8]; Table 2 (repeated screening),51.00%
hydroxycamptothecine [reference compound],Average weight(g)-after administration,[9]; [12],20.5 g
same,Inhibition rate (%),[9]; [12],63.9%
same,Tumor weight,[9]; [12],1.12 ± 0.28 g
same,Average weight(g)-after administration,[9]; [13],20.2 g
same,Inhibition rate (%),[9]; [13],66.9%
same,Tumor weight,[9]; [13],1.00 ± 0.28 g
same,Average weight (g)-after administration,"[9]; H22, third experiment, 1 mg/kg",22.2 g
same,Inhibition rate (%),"[9]; H22, third experiment, 1 mg/kg",65.3%
same,Tumor weight,"[9]; H22, third experiment, 1 mg/kg",1.05 ± 0.28 g
same,Average weight (g)-after administration,mouse lung cancer Lewis; second experiment,21.0 g
same,Inhibition rate (%),mouse lung cancer Lewis; second experiment,50.2%
same,Tumor weight,mouse lung cancer Lewis; second experiment,1.20 ± 0.28 g
same,Average weight (g)-after administration,mouse lung cancer Lewis; third experiment,21.5 g
same,Inhibition rate (%),mouse lung cancer Lewis; third experiment,51.9%
same,Tumor weight,mouse lung cancer Lewis; third experiment,1.30 ± 0.28 g
same,Average weight(g)-after administration,"[10]; U14, first experiment",22.2 g
same,Inhibition rate (%),"[10]; U14, first experiment",45.8%
same,Tumor weight,"[10]; U14, first experiment",1.90 ± 0.28 g
same,Average weight(g)-after administration,"[10]; U14, second experiment",22.3 g
same,Inhibition rate (%),"[10]; U14, second experiment",46.5%
same,Tumor weight,"[10]; U14, second experiment",1.82 ± 0.28 g
same,Average weight (g)-after administration,"[10]; U14, third experiment",21.3 g
same,Inhibition rate (%),"[10]; U14, third experiment",45.6%
same,Tumor weight,"[10]; U14, third experiment",1.96 ± 0.28 g
same,Average weight (g)-after administration,"[11]; S-180, first experiment",20.8 g
same,Inhibition rate (%),"[11]; S-180, first experiment",65.2%
same,Tumor weight,"[11]; S-180, first experiment",0.87 ± 0.28 g
same,Average weight(g)-after administration,"[11]; S-180, second experiment",20.8 g
same,Inhibition rate (%),"[11]; S-180, second experiment",64.6%
same,Tumor weight,"[11]; S-180, second experiment",0.92 ± 0.38 g
